In patent US20240327415A1, “Multicomponent Complexes, Including Salts, Crystalline Forms, and Hydrates and Solvates of ENT1 Inhibitors” (iTeos Belgium SA, priority 2023, published 2024):
Read-outs that look alike come from different tables or passages of the source.

Experiments:
Type in all cases: physicochemical
[1] = Dynamic Vapor Sorption (DVS); details: for post-DVS sample (XRPD / appearance): DVS at 25° C.
Method: (§1) METHOD A: In Example 11, approximately 5-15 mg of sample was placed into a mesh vapor sorption balance pan and loaded into either a DVS Intrinsic or DVS Advantage dynamic vapor sorption balance by Surface Measurement Systems. The sample was subjected to a ramping profile from 40-90% relative humidity (RH) at 10% increments, maintaining the sample at each step until a stable weight had been achieved (dm/dt 0.004%, minimum step length 30 minutes, maximum step length 500 minutes) at 25° C. After completion of the sorption cycle, the sample was dried using the same procedure to 0% RH and then a second sorption cycle back to 40% RH was carried out. Two cycles were performed. The weight change during the sorption/desorption cycles were plotted, allowing the hygroscopic nature of the sample to be determined. XRPD analysis was then carried out on the residual solid.
as §1, with “B:” for “A:”, “Examples 2A, 3, 14, and 17,” for “Example 11,”, “10-20” for “5-15”, “determined.” for “determined. XRPD analysis was then carried out on the residual solid.”
as §1, with “Approximately 10-20” for “METHOD A: In Example 11, approximately 5-15”, “RH” for “relative humidity (RH)”, “min,” for “minutes,”, “min)” for “minutes)”, “determined.” for “determined. XRPD analysis was then carried out on the residual solid.”

[2] = TG/DSC and DSC thermal analysis; details: for TGA/DSC thermal event, onset: value before the brackets; for TGA/DSC thermal event, peak: value in brackets
Method: (§2) In the examples below, to measure TGA/DSC, 2-10 mg of material was added into a pre-tared open aluminum pan and loaded into a TA Instruments Discovery SDT 650 Auto—Simultaneous DSC and held at room temperature. The sample was then heated at a rate of 10° C./min from 30° C. to 400° C. during which time the change in sample weight was recorded along with the heat flow response (DSC). Nitrogen was used as the sample purge gas, at a flow rate of 200 cm^3/min.
(§3) METHOD A: In Example 3, 1-5 mg of material was weighed into an aluminum DSC pan and sealed non-hermetically with a pierced aluminum lid. The sample pan was then loaded into a TA DSC2500 and held at 20° C. Once a stable heat-flow response was obtained, the sample and reference were heated to an upper temperature of 200° C. at a scan rate of 10° C./min and the resulting heat flow response monitored. The sample was held at the upper temperature for 3 minutes, before it was cooled at 10° C./min to 20° C., reheated to the upper temperature at 10° C./min, and then cooled again to 20° C. at the same rate. Nitrogen was used as the purge gas, at a flow rate of 50 cm^3/min.
as §3, with “B:” for “A:”, “Examples 2A, 14, and 17,” for “Example 3,”, “−80° C. and then” for “20° C.,”, “C./min.” for “C./min, and then cooled again to 20° C. at the same rate.”
METHOD C: In Example 5, 1-5 mg of a sample were weighed into an aluminum DSC pan and sealed non-hermetically with an aluminum lid. The sample pan was then loaded into a TA Instruments Discovery DSC 2500 differential scanning calorimeter equipped with a RC90 cooler. The sample and reference were heated to 190° C. at a scan rate of 10° C./min and the resulting heat flow response monitored. The sample was re-cooled to −80° C. and then reheated again to 190° C. all at 10° C./min. Nitrogen was used as the purge gas, at a flow rate of 50 cm^3/min.
as §2, with “2-10” for “In the examples below, to measure TGA/DSC, 2-10”, “Auto-Simultaneous” for “Auto—Simultaneous”
as §3, with “1-5” for “METHOD A: In Example 3, 1-5”, “min,” for “minutes,”

[3] = XRPD characterization (summary Table 59); details: crystallinity
[4] = listed as Crystalline Form 4 Compound 1 mono(hydrogen sulfate)

SMILES | DVS uptake ([1]; at 80% RH) [% uptake at] | moisture uptake (DVS) ([1]; between 0-10% RH, 25° C.) | moisture uptake (DVS) ([1]; between 10-80% RH, 25° C.) | DSC (onset/peak): onset [2] [°C] | DSC (onset/peak): peak [2] [°C] | TGA/DSC mass loss [2] [% mass loss] | TGA/DSC thermal event, onset [2] [°C] | TGA/DSC thermal event, peak [2] [°C] | XRPD [3] | post-DVS sample (XRPD / appearance) [1] | also measured
CCCN1CCNCCCNC(=O)c2cc(OC)c(OC)c(c2)OCCC[C@@H](OC(=O)c2cc(OC)c(OC)c(OC)c2)CC1 | 8.0 | about 6.3% | 1.7% | 144 | 158 | 7.3 | 130 | 149 | Crystalline |  | DVS: Dehydrates [1]: Dehydrates <15% RH
COc1cc(C(=O)O[C@@H]2CCCOc3cc(cc(OC)c3OC)C(=O)NCCCN3CCCN(CC2)CC3)cc(OC)c1OC.O=S(=O)(O)O |  |  |  | 113 | 119 |  |  |  | Crystalline | conversion to crystalline Form 8 Compound 1 mono(hydrogen sulfate) | DVS: Conversion to (solid form) ([1]; after DVS at 40% RH): Form 8 after; DVS loss ([1]; at 20-30% RH (desorption)): 8.0% loss at; DVS uptake ([1]; at 40-50% RH (2nd sorption)): 8.1% uptake at; moisture loss (DVS) ([1]; between 20-30% RH): ca. 8.0%; moisture uptake (DVS) ([1]; between 40-40% RH during the sorption cycles): ca. 4.9%; moisture uptake (DVS) ([1]; between 40-50% RH): 8.1%; moisture uptake (DVS) ([1]; between 50-80% RH): ca. 2.2%; TGA/DSC mass loss [2, 4]: 15.5% mass loss; TGA/DSC thermal event, onset [2, 4]: 148 °C; TGA/DSC thermal event, peak [2, 4]: 160 °C
COc1cc(C(=O)O[C@@H]2CCCOc3cc(cc(OC)c3OC)C(=O)NCCCN3CCCN(CC2)CC3)cc(OC)c1OC.O=S(=O)(O)O.O=S(=O)(O)O [crystalline Form 3 Compound 1 di(hydrogen sulfate)] | 7.3 | about 5.2% | ca. 2.1% |  |  | 3.1 | 163 | 177 | Partially | conversion to crystalline Form 2 Compound 1 di(hydrogen sulfate) trihydrate | DVS: solid form conversion [1]: Conversion to P2; moisture uptake (DVS) ([1]; between 40-80% RH, first sorption cycle, 25° C.): ca. 7.1%
